Results taken from patent US12492173B2, “Herbicidal substituted N-tetrazolyl aryl carboxamides” (Bayer Aktiengesellschaft, priority 2019, dated 2025).

Tests used:
Type in all cases: in vivo
Amaranthus retroflexus [1] = test: Pre-emergence herbicidal action, AMARE; conditions: dosage 320 g/ha
Method in brief: (§1)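 Seeds sown in sandy loam in pots and covered with soil; compounds formulated as WP or EC were sprayed onto the soil surface as aqueous suspension/emulsion at 600 to 800 l/ha water with 0.2% wetting agent. Greenhouse growth; visual damage scored after 3 weeks versus untreated controls (100% = plants died, 0% = like control).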

Matricaria inodora [2] = test: Pre-emergence herbicidal action, MATIN; conditions: dosage 320 g/ha
Method in brief: as §1

Veronica persica [3] = test: Pre-emergence herbicidal action, VERPE; conditions: dosage 320 g/ha
Method in brief: as §1

Abutilon theophrasti [4] = test: Post-emergence herbicidal action, ABUTH; parameters: key: % herbicidal action vs untreated; 100 = plants died, 0 = like control; conditions: for herbicidal action ABUTH: Dosage 80 g/ha
Method in brief: (§2)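 Percent herbicidal effect was judged by eye against untreated controls around 3 weeks after foliar treatment, where 100% meant dead plants. Spraying took place at the one-leaf stage using wettable powder or emulsion concentrate diluted in water (600 to 800 l/ha) with added wetting agent at 0.2%.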

Amaranthus retroflexus [5] = test: Post-emergence herbicidal action, AMARE; parameters: key: % herbicidal action vs untreated; 100 = plants died, 0 = like control; conditions: for herbicidal action AMARE: Dosage 80 g/ha; for Herbicidal action against AMARE: post-emergence, dosage 80 g/ha
Method in brief: as §2

Cyperus esculentus = test: Post-emergence herbicidal action, CYPES; parameters: key: % herbicidal action vs untreated; 100 = plants died, 0 = like control; conditions: Dosage 80 g/ha
Method: (§3) [table] 2. Post-Emergence Herbicidal Action Against Harmful Plants Seeds of monocotyledonous and dicotyledonous weed and crop plants are laid out in sandy loam soil in wood-fiber pots, covered with soil and cultivated in a greenhouse under good growth conditions. 2 to 3 weeks after sowing, the test plants are treated at the one-leaf stage. The compounds of the invention, formulated in the form of wettable powders (WP) or as emulsion concentrates (EC), are then sprayed onto the green parts of the plants in the form of an aqueous suspension or emulsion at a water application rate equating to 600 to 800 l/ha, with addition of 0.2% wetting agent. After the test plants have been left to stand in the greenhouse under optimal growth conditions for about 3 weeks, the action of the preparations is assessed visually in comparison to untreated controls (herbicidal action in percent (%): 100% activity=the plants have died, 0% activity=like control plants). […] The tables below illustrate, in an exemplary manner, the post-emergence herbicidal action of the compounds according to the invention, the herbicidal activity being stated in percent. In the experiments that follow, herbicidal action of numerous inventive compounds and the known compounds that are structurally closest from D1 (WO 2012/028579 A1) and D2 (WO 2018/202535 A1) were compared under the above-specified conditions by the pre-emergence and post-emergence method. The example numbers given in the tables relate to the compounds disclosed in the respective documents. In addition to the compounds disclosed in D1 and D2, the following compounds V-1 to V-14 that are encompassed by D1 or D2 but are not compounds specified therein were used in the comparative experiments: • V-1: 2-(methylsulfanyl)-3-(methylsulfinyl)-N-(1-methyl-1H-tetrazol-5-yl)-4-(trifluoromethyl)benzamide • V-2: 2-(methylsulfanyl)-3-(methylsulfonyl)-N-(1-methyl-1H-tetrazol-5-yl)-4-(trifluoromethyl)benzamide • V-3: 2,3-bis(ethylsulfanyl)-N-(1-methyl-1H-tetrazol-5-yl)-4-(trifluoromethyl)benzamide • V-4: 2-chloro-3-(ethylsulfanyl)-N-(1-methyl-1H-tetrazol-5-yl)-4-(trifluoromethyl)benzamide • V-5: 2-chloro-4-iodo-3-(methylsulfanyl)-N-(1-methyl-1H-tetrazol-5-yl)benzamide • V-6: 2-chloro-4-iodo-3-(methylsulfinyl)-N-(1-methyl-1H-tetrazol-5-yl)benzamide • V-7: 2-chloro-4-iodo-3-(methylsulfonyl)-N-(1-methyl-1H-tetrazol-5-yl)benzamide • V-8: 2-bromo-3-(methylsulfanyl)-N-(1-methyl-1H-tetrazol-5-yl)-4-(trifluoromethyl)benzamide • V-9: 2-bromo-3-(methylsulfinyl)-N-(1-methyl-1H-tetrazol-5-yl)-4-(trifluoromethyl)benzamide • V-10: 2-bromo-3-(methylsulfonyl)-N-(1-methyl-1H-tetrazol-5-yl)-4-(trifluoromethyl)benzamide • V-11: 2-bromo-3-(ethylsulfanyl)-N-(1-methyl-1H-tetrazol-5-yl)-4-(trifluoromethyl)benzamide • V-12: 2-bromo-3-(ethylsulfinyl)-N-(1-methyl-1H-tetrazol-5-yl)-4-(trifluoromethyl)benzamide • V-13: 2-bromo-3-(ethylsulfonyl)-N-(1-methyl-1-1H-tetrazol-5-yl)-4-(trifluoromethyl)benzamide • V-14: 2-cyclopropyl-3-(ethylsulfanyl)-N-(1-methyl-1H-tetrazol-5-yl)-4-(trifluoromethyl)benzamide Herbicidal Pre-Emergence Action: […]

Echinochloa crus-galli [6] = test: Post-emergence herbicidal action, ECHCG; parameters: key: % herbicidal action vs untreated; 100 = plants died, 0 = like control; conditions: for herbicidal action ECHCG: Dosage 80 g/ha; for Herbicidal action against ECHCG: post-emergence, dosage 80 g/ha
Method in brief: as §2

Matricaria inodora [7] = test: Post-emergence herbicidal action, MATIN; parameters: key: % herbicidal action vs untreated; 100 = plants died, 0 = like control; conditions: for herbicidal action MATIN: Dosage 80 g/ha
Method in brief: as §2

Pharbitis purpurea [8] = test: Post-emergence herbicidal action, PHBPU; conditions: for herbicidal action PHBPU: Dosage 80 g/ha; for Herbicidal action against PHBPU: post-emergence, dosage 80 g/ha
Method in brief: as §2

Setaria viridis [9] = test: Post-emergence herbicidal action, SETVI; parameters: key: % herbicidal action vs untreated; 100 = plants died, 0 = like control; conditions: Dosage 80 g/ha
Method in brief: as §2

Stellaria media [10] = test: Post-emergence herbicidal action, STEME; parameters: key: % herbicidal action vs untreated; 100 = plants died, 0 = like control; conditions: for herbicidal action STEME: Dosage 80 g/ha; for Herbicidal action against STEME: post-emergence, dosage 80 g/ha
Method in brief: as §2

Veronica persica [11] = test: Post-emergence herbicidal action, VERPE; parameters: key: % herbicidal action vs untreated; 100 = plants died, 0 = like control; conditions: for herbicidal action VERPE: Dosage 80 g/ha
Method in brief: as §2

Viola tricolor [12] = test: Post-emergence herbicidal action, VIOTR; parameters: key: % herbicidal action vs untreated; 100 = plants died, 0 = like control; conditions: for herbicidal action VIOTR: Dosage 80 g/ha; for Herbicidal action against VIOTR: post-emergence, dosage 80 g/ha
Method in brief: as §2

Abutilon theophrasti [13] = test: Pre-emergence herbicidal action, ABUTH; conditions: dosage 320 g/ha
Method in brief: as §1

Echinochloa crus-galli [14] = test: Pre-emergence herbicidal action, ECHCG; conditions: dosage 320 g/ha
Method in brief: as §1

Pharbitis purpurea [15] = test: Pre-emergence herbicidal action, PHBPU
Description: (§4) 1. Pre-Emergence Herbicidal Action Against Harmful Plants Seeds of monocotyledonous and dicotyledonous weed plants and crop plants are laid out in sandy loam soil in wood-fiber pots and covered with soil. The compounds of the invention, formulated in the form of wettable powders (WP) or as emulsion concentrates (EC), are then applied to the surface of the covering soil in the form of an aqueous suspension or emulsion at a water application rate equating to 600 to 800 l/ha, with addition of 0.2% wetting agent. After the treatment, the pots are placed in a greenhouse and kept under good growth conditions for the trial plants. The damage to the test plants is scored visually after a test period of 3 weeks by comparison with untreated controls (herbicidal activity in percent (%): 100% activity=the plants have died, 0% activity=like control plants). […] The tables below illustrate, in an exemplary manner, the […] herbicidal action of the compounds according to the invention, the herbicidal activity being stated in percent. [table] In the experiments that follow, herbicidal action of numerous inventive compounds and the known compounds that are structurally closest from D1 (WO 2012/028579 A1) and D2 (WO 2018/202535 A1) were compared under the above-specified conditions by the pre-emergence and post-emergence method. The example numbers given in the tables relate to the compounds disclosed in the respective documents. In addition to the compounds disclosed in D1 and D2, the following compounds V-1 to V-14 that are encompassed by D1 or D2 but are not compounds specified therein were used in the comparative experiments: • V-1: 2-(methylsulfanyl)-3-(methylsulfinyl)-N-(1-methyl-1H-tetrazol-5-yl)-4-(trifluoromethyl)benzamide • V-2: 2-(methylsulfanyl)-3-(methylsulfonyl)-N-(1-methyl-1H-tetrazol-5-yl)-4-(trifluoromethyl)benzamide • V-3: 2,3-bis(ethylsulfanyl)-N-(1-methyl-1H-tetrazol-5-yl)-4-(trifluoromethyl)benzamide • V-4: 2-chloro-3-(ethylsulfanyl)-N-(1-methyl-1H-tetrazol-5-yl)-4-(trifluoromethyl)benzamide • V-5: 2-chloro-4-iodo-3-(methylsulfanyl)-N-(1-methyl-1H-tetrazol-5-yl)benzamide • V-6: 2-chloro-4-iodo-3-(methylsulfinyl)-N-(1-methyl-1H-tetrazol-5-yl)benzamide • V-7: 2-chloro-4-iodo-3-(methylsulfonyl)-N-(1-methyl-1H-tetrazol-5-yl)benzamide • V-8: 2-bromo-3-(methylsulfanyl)-N-(1-methyl-1H-tetrazol-5-yl)-4-(trifluoromethyl)benzamide • V-9: 2-bromo-3-(methylsulfinyl)-N-(1-methyl-1H-tetrazol-5-yl)-4-(trifluoromethyl)benzamide • V-10: 2-bromo-3-(methylsulfonyl)-N-(1-methyl-1H-tetrazol-5-yl)-4-(trifluoromethyl)benzamide • V-11: 2-bromo-3-(ethylsulfanyl)-N-(1-methyl-1H-tetrazol-5-yl)-4-(trifluoromethyl)benzamide • V-12: 2-bromo-3-(ethylsulfinyl)-N-(1-methyl-1H-tetrazol-5-yl)-4-(trifluoromethyl)benzamide • V-13: 2-bromo-3-(ethylsulfonyl)-N-(1-methyl-1-1H-tetrazol-5-yl)-4-(trifluoromethyl)benzamide • V-14: 2-cyclopropyl-3-(ethylsulfanyl)-N-(1-methyl-1H-tetrazol-5-yl)-4-(trifluoromethyl)benzamide Herbicidal Pre-Emergence Action: […]

Polygonum convolvulus [16] = test: Pre-emergence herbicidal action, POLCO; conditions: dosage 320 g/ha, scored visually after 3 weeks vs untreated controls (100% = plants have died)
Description: as §4

Setaria viridis [17] = test: Pre-emergence herbicidal action, SETVI; conditions: dosage 320 g/ha, scored visually after 3 weeks vs untreated controls (100% = plants have died)
Description: as §4

Stellaria media [18] = test: Pre-emergence herbicidal action, STEME; conditions: dosage 320 g/ha
Method in brief: as §1

Viola tricolor [19] = test: Pre-emergence herbicidal action, VIOTR; conditions: dosage 320 g/ha
Method in brief: as §1

Alopecurus myosuroides = test: Post-emergence herbicidal action, ALOMY; parameters: key: % herbicidal action vs untreated; 100 = plants died, 0 = like control; conditions: Dosage 80 g/ha
Method: as §3

Polygonum convolvulus [20] = test: Post-emergence herbicidal action, POLCO; conditions: Dosage 80 g/ha
Method: as §3

[21] = scored visually after 3 weeks vs untreated controls (100% = plants have died)

SMILES	herbicidal action AMARE (Amaranthus retroflexus [1]) [%]	herbicidal action MATIN (Matricaria inodora [2]) [%]	herbicidal action VERPE (Veronica persica [3]) [%]	herbicidal action ABUTH (Abutilon theophrasti [4])	herbicidal action AMARE (Amaranthus retroflexus [5])	herbicidal action CYPES (Cyperus esculentus)	herbicidal action ECHCG (Echinochloa crus-galli [6])	herbicidal action MATIN (Matricaria inodora [7])	herbicidal action PHBPU (Pharbitis purpurea [8])	herbicidal action SETVI (Setaria viridis [9])	herbicidal action STEME (Stellaria media [10])	herbicidal action VERPE (Veronica persica [11])	herbicidal action VIOTR (Viola tricolor [12])	Herbicidal action against AMARE (Amaranthus retroflexus [5])	Herbicidal action against ECHCG (Echinochloa crus-galli [6])	Herbicidal action against PHBPU (Pharbitis purpurea [8])	Herbicidal action against STEME (Stellaria media [10])	Herbicidal action against VIOTR (Viola tricolor [12])	herbicidal action ECHCG (Echinochloa crus-galli [14]) [%]	herbicidal action STEME (Stellaria media [18]) [%]	other results
Cc1c(C(=O)Nc2nnnn2C)ccc(S(C)(=O)=O)c1CS(C)(=O)=O [Example 1-39]	100	100	90	90	90	80	80	90	80	90	80	90	90	–	–	–	–	–	–	–	–
Cn1nnnc1NC(=O)c1ccc(S(C)(=O)=O)c(CS(C)(=O)=O)c1Cl [Example 1-280]	–	–	–	–	–	–	–	–	–	–	–	–	–	90	90	90	100	90	–	–	herbicidal activity ABUTH (Abutilon theophrasti [13]; [21]): 90%; herbicidal activity AMARE (Amaranthus retroflexus [1]; [21]): 100%; herbicidal activity ECHCG (Echinochloa crus-galli [14]; [21]): 100%; herbicidal activity MATIN (Matricaria inodora [2]; [21]): 90%; herbicidal activity PHBPU (Pharbitis purpurea [15]; dosage 320 g/ha, scored visually after 3 weeks vs untreated controls (100% = plants have died)): 80%; herbicidal activity POLCO (Polygonum convolvulus [16]): 80%; herbicidal activity SETVI (Setaria viridis [17]): 80%; herbicidal activity STEME (Stellaria media [18]; [21]): 90%; herbicidal activity VERPE (Veronica persica [3]; [21]): 100%; herbicidal activity VIOTR (Viola tricolor [19]; [21]): 90%
CCSCc1c(C(F)(F)F)ccc(C(=O)Nc2nnnn2C)c1C1CC1 [Example 1-517]	–	–	–	–	–	–	–	–	–	–	–	–	–	–	–	–	–	–	–	–	Herbicidal action against PHBPU (Pharbitis purpurea [15]; comparative experiment, 20 g of a.i./ha): 60
CCn1nnnc1NC(=O)c1ccc(S(C)(=O)=O)c(CSC)c1C [Example 2-37]	100	–	100	80	90	80	100	80	80	100	100	100	100	–	–	–	–	–	90	90	herbicidal action ALOMY (Alopecurus myosuroides): 80
CCn1nnnc1NC(=O)c1ccc(C)c(C[S+](C)[O-])c1Cl (stereo not drawn) [Example 2-288]	100	90	100	90	100	–	90	90	90	90	100	100	80	–	–	–	–	–	100	90	herbicidal action ALOMY (Alopecurus myosuroides): 80; herbicidal action POLCO (Polygonum convolvulus [20]): 90
CCCn1nnnc1NC(=O)c1ccc(C(F)(F)F)c(CS(C)(=O)=O)c1S(C)(=O)=O [Example 3-199]	90	100	100	–	–	–	–	–	–	–	–	–	–	80	80	90	80	90	–	80	herbicidal action ABUTH (Abutilon theophrasti [13]): 100%; herbicidal action PHBPU (Pharbitis purpurea [15]; dosage 320 g/ha): 80%; herbicidal action VIOTR (Viola tricolor [19]): 100%; Herbicidal action against ABUTH (Abutilon theophrasti [4]; post-emergence, dosage 80 g/ha): 90; Herbicidal action against MATIN (Matricaria inodora [7]; post-emergence, dosage 80 g/ha): 80; Herbicidal action against VERPE (Veronica persica [11]; post-emergence, dosage 80 g/ha): 100
